Source: patent publication US8592579B2, “Pyrrolotriazine kinase inhibitors” (Bristol-Myers Squibb Company, priority 2006, dated 2013)

Tested on: IGF1R-Sal tumors
Experiment: IGF-1R Sal Tumor Model
Type: in vivo, nude mice
Conditions: Mus musculus, 96 h, 6.25 mpk, qd, oral, 4 consecutive days, read-out: IGF-1R Sal % TGI
Experimental: A salivary gland adenocarcinoma that developed spontaneously in a transgenic mouse (MCI-19) was excised and cut into fragments of about 20 mg. Tumor fragments were implanted s.c. into the ventral thoracic region of a group of six female, athymic BALB/c nu/nu mice (Harley Sprague-Dawley, Indianapolis, Ind.), using a 13-gauge trocar. Once established, the salivary gland-derived tumor line was designated IGF 1R-Sal and was propagated as a tumor xenograft in nude mice. Tumors were passaged every 2 weeks, at which time the tumor reached f500 to 1,000 mm3 in size. […] Compounds were administered either on a bid schedule (oral doses 8 hours apart) or on a once a day schedule orally (qd) for 4 consecutive days. Tumors were measured at the start and end of treatment. Activity was measured as % tumor growth inhibition (% TGI). The % TGI was determined using the following formula (Ct−Tt)/(Ct−Co) where Ct is defined as the median tumor size of the control group at the end of treatment, Co is defined as the median tumor size of the control group at the start of treatment, and Tt is defined as the median tumor size of the treated group at the end of treatment.

CNC(=O)[C@@H]1CCCN1c1nc(Nc2cc(C3CC3)[nH]n2)c2cccn2n1 [Example 3, (S)-1-(4-(5-cyclopropyl-1H-pyrazol-3-ylamino)pyrrolo[1,2-f][1,2,4]triazin-2-yl)-N-methylpyrrolidine-2-carboxamide] showed an inhibition in vivo at 6.25 mg/kg of 80%.

Same assay, conditions: Mus musculus, 96 h, 25 mpk, bid, oral, 4 consecutive days, read-out: IGF-1R Sal % TGI

C[C@@]1(C(=O)Nc2cccnc2)CCCN1c1nc(Nc2cc(C3CC3)[nH]n2)c2cccn2n1 [Example 68] and Cc1cc(Nc2nc(N3CCC[C@@]3(C)C(=O)Nc3cccnc3)nn3cccc23)n[nH]1 [Example 85] are the same in inhibition in vivo at 25 mg/kg: 76% for the first, 76% for the second.

First: Cc1cc(NC(=O)[C@]2(C)CCCN2c2nc(Nc3cc(C4CC4)[nH]n3)c3cccn3n2)n[nH]1 [Example 135]
Second: O=C(Nc1nccs1)[C@@H]1C[C@@H](F)CN1c1nc(Nc2cc(C3CC3)[nH]n2)c2cccn2n1 [Example 198, (2S,4R)-1-(4-(5-cyclopropyl-1H-pyrazol-3-ylamino)pyrrolo[1,2-f][1,2,4]triazin-2-yl)-4-fluoro-N-(thiazol-2-yl)pyrrolidine-2-carboxamide]
The inhibition in vivo at 25 mg/kg of the first is lower: 25% for the first, 124% for the second.

Going from CC1(c2cc(Nc3nc(N4CCC[C@H]4C(=O)N[C@@H]4CCCNC4)nn4cccc34)n[nH]2)CC1 [Example 194, (S)-1-(4-(5-(1-methylcyclopropyl)-1H-pyrazol-3-ylamino)pyrrolo[1,2-f][1,2,4]triazin-2-yl)-N-((R)-piperidin-3-yl)pyrrolidine-2-carboxamide] to CC(C)n1cnc(Nc2nc(N3CCC[C@H]3C(=O)NC3CCCN(C)C3)nn3cccc23)c1 (stereo partly drawn) [Example 236, (S)-1-(4-(1-Isopropyl-1H-imidazol-4-ylamino)pyrrolo[1,2-f][1,2,4]triazin-2-yl)-N-((R)-1-methylpiperidin-3-yl)pyrrolidine-2-carboxamide], the inhibition in vivo at 25 mg/kg rises from 52% to 113%.

In the case of O=C(Nc1ccc(F)nc1)[C@@H]1C[C@@H](O)CN1c1nc(Nc2cc(C3CC3)[nH]n2)c2cccn2n1 [Example 217, (2S,4R)-1-(4-(5-cyclopropyl-1H-pyrazol-3-ylamino)pyrrolo[1,2-f][1,2,4]triazin-2-yl)-N-(6-fluoropyridin-3-yl)-4-hydroxypyrrolidine-2-carboxamide], the inhibition in vivo at 25 mg/kg is reported as 0%.

Same assay, conditions: Mus musculus, 96 h, 50 mpk, qd, oral, 4 consecutive days, read-out: IGF-1R Sal % TGI

First: O=C(Nc1cnccn1)[C@@H]1C[C@@H](F)CN1c1nc(Nc2cc(C3CC3)[nH]n2)c2cccn2n1 [Example 206]
Second: C[C@@]1(C(=O)Nc2cnccn2)C[C@H](O)CN1c1nc(Nc2cc(C3CC3)[nH]n2)c2cccn2n1 [Example 227, (2S,4S)-1-(4-(5-cyclopropyl-1H-pyrazol-3-ylamino)pyrrolo[1,2-f][1,2,4]triazin-2-yl)-4-hydroxy-2-methyl-N-(pyrazin-2-yl)pyrrolidine-2-carboxamide]
The inhibition in vivo at 50 mg/kg of the first is lower: 111% for the first, 115% for the second.

Molecule CC(C)n1cnc(Nc2nc(N3C[C@@H](O)C[C@H]3C(=O)Nc3cnccn3)nn3cccc23)c1 [Example 245, (2S,4S)-4-hydroxy-1-(4-(1-isopropyl-1H-imidazol-4-ylamino)pyrrolo[L2-f][1,2,4]triazin-2-yl)-N-(pyrazin-2-yl)pyrrolidine-2-carboxamide] has an inhibition in vivo at 50 mg/kg of 112%.
